For 22 compounds, IC50 results are on record in patent publication US20230019236A1, “PROTEIN TYROSINE PHOSPHATASE INHIBITORS AND METHODS OF USE THEREOF” (Calico Life Sciences LLC, priority 2019, published 2023).

As a reminder, the IC50 is the midpoint of a concentration-inhibition curve.

Assay [1] addresses T1, His tagged PTPN2 (TC45) protein (Homo sapiens, UniProt P17706).
T1 construct: made in house
T1 sequence (P17706 with tags, fused parts or gaps isoform P17706-2): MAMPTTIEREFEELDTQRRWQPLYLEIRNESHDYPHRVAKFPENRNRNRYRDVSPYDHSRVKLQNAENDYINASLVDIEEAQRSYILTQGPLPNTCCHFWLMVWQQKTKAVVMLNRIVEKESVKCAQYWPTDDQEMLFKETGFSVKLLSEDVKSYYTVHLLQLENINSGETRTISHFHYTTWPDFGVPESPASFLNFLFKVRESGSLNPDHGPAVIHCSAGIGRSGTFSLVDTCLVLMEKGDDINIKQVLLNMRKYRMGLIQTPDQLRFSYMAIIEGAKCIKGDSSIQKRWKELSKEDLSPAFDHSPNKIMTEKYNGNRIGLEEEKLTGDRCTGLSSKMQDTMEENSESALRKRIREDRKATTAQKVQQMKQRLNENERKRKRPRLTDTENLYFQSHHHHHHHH
Put plainly: Mobility Shift Assay used to determine potency of PTPN2 inhibitors. The class given is biochemical. The note with it: Table 2; read-out: PTPN2 MSA IC50. As to the method:
Example 292: Mobility Shift Assay used to determine potency of PTPN2 inhibitors
Compound activity was determined using in house His tagged PTPN2 (TC45) protein (SEQ ID NO: 1) in an in vitro enzymatic reaction. The enzymatic assay used to determine activity was a mobility shift assay using a LabChip EZ Reader by Caliper Life Sciences. The enzymatic reaction was carried out in assay buffer (50 mM HEPES pH 7.5, 1 mM EGTA, 10 mM EDTA, 0.01% Tween® 20, and 2 mM DTT). The compounds were dispensed on a white 384 well ProxiPlate™ (PerkinElmer Catalog#6008289) plate using the Labcyte Echo at varying concentrations (12 point, 1:3 dilution). The enzyme (at 0.5 nM) was incubated with compound for 10 minutes at room temperature. Then the substrate (phosphorylated insulin receptor probe sequence: ((OG488)—{NH—CH2—CH2—O—CH2—CH2—O—CH2—CO)—T—R—D—I—(PY)—E—T—D—Y—Y—R—K—K—NH2) (SEQ ID NO: 2) was added at 2 μM to the plates and incubated for another 10 minutes at room temperature. Finally, a quench solution (water and 4-bromo-3-(2-oxo-2-propoxyethoxy)-5-(3-{[1-(phenylmethanesulfonyl)piperidin-4-yl]amino}phenyl)thiophene-2-carboxylic acid) was added to the plates, which were then run on the EZ Reader (excitation 488 nm, emission 530 nm) to measure % conversion (the amount of phosphorylated substrate which was de-phosphorylated by PTPN2). […] The % inhibition was then used to calculate the IC50 values.

The target of assay [2] is T2, His tagged full-length PTP1B protein (Homo sapiens, UniProt P18031).
T2 construct: made in house
T2 sequence (P18031 with tags, fused parts or gaps): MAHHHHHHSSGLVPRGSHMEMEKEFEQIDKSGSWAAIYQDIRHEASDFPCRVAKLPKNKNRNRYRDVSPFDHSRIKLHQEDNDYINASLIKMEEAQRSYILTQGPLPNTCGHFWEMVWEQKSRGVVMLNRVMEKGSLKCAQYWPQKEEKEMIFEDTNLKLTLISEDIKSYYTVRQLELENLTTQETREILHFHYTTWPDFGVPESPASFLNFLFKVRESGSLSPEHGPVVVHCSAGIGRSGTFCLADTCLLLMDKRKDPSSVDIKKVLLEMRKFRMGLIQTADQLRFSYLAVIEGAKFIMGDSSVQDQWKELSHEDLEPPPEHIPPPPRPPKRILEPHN
Put plainly: Mobility Shift Assay (MSA) used to determine potency of PTP1B inhibitors. It counts as biochemical. The following applies: Table 2. As to the method: The enzymatic assay used to determine activity is a mobility shift assay using a LabChip EZ Reader by Caliper Life Sciences. The enzymatic reaction was carried out in assay buffer (50 mM HEPES pH 7.5, 1 mM EGTA, 10 mM EDTA, 0.01% Tween® 20, and 2 mM DTT). […] The enzyme (at 0.5 nM) was incubated with compound for 10 minutes at room temperature. […] The % inhibition was then used to calculate the IC50 values.

For the compound `C[C@@H](O)C[C@@H](O)COc1ccc2cc(O)c(N3CC(=O)NS3(=O)=O)c(F)c2c1` (racemic) [Compound 325, 5-(7-{[rac-(2R,4R)-2,4-dihydroxypentyl]oxy}-1-fluoro-3-hydroxynaphthalen-2-yl)-1λ^6,2,5-thiadiazolidine-1,1,3-trione], the IC50 in assay [1] and in assay [2] was 1 to 10 nM in each case.

For the compound `O=C1CN(c2c(O)cc3ccc(OCCNS(=O)(=O)C4CC4)cc3c2F)S(=O)(=O)N1` [Compound 127, N-(2-{[8-fluoro-6-hydroxy-7-(1,1,4-trioxo-1λ^6,2,5-thiadiazolidin-2-yl)naphthalen-2-yl]oxy}ethyl)cyclopropanesulfonamide], the IC50 in assay [1] and in assay [2] was 1 to 10 nM each time.

Consider `N#CCC1(COc2ccc3cc(O)c(N4CC(=O)NS4(=O)=O)c(F)c3c2)CC1` [Compound 130, [1-({[8-fluoro-6-hydroxy-7-(1,1,4-trioxo-1λ^6,2,5-thiadiazolidin-2-yl)naphthalen-2-yl]oxy}methyl)cyclopropyl]acetonitrile], for which the IC50 in assay [1] and in assay [2] was 1 to 10 nM in each case.

Turning to `N#CC1(COc2ccc3cc(O)c(N4CC(=O)NS4(=O)=O)c(F)c3c2)CC1` [Compound 199, 1-({[8-fluoro-6-hydroxy-7-(1,1,4-trioxo-1λ^6,2,5-thiadiazolidin-2-yl)naphthalen-2-yl]oxy}methyl)cyclopropane-1-carbonitrile], the IC50 is 1 to 10 nM in assay [1] and more than 100 nM in assay [2].

`CC(O)(CO)CCOc1ccc2cc(O)c(N3CC(=O)NS3(=O)=O)c(F)c2c1` (stereo not drawn) [Compound 323, 5-[7-(3,4-dihydroxy-3-methylbutoxy)-1-fluoro-3-hydroxynaphthalen-2-yl]-1λ^6,2,5-thiadiazolidine-1,1,3-trione]: the IC50 in assay [1] and in assay [2] was less than 1 nM each time.

`O=C1CN(c2c(O)cc3ccc(NCCCC(F)F)cc3c2F)S(=O)(=O)N1` [Compound 324, 5-{7-[(4,4-difluorobutyl)amino]-1-fluoro-3-hydroxynaphthalen-2-y}-1λ^6,2,5-thiadiazolidine-1,1,3-trione]: the IC50 in assay [1] and in assay [2] was less than 1 nM in each case.

`O=C1CN(c2c(O)cc3ccc(OCCN4CCNC4=O)cc3c2F)S(=O)(=O)N1` [Compound 326, 5-{1-fluoro-3-hydroxy-7-[2-(2-oxoimidazolidin-1-yl)ethoxy]naphthalen-2-yl}-1λ^6,2,5-thiadiazolidine-1,1,3-trione]: the results for the IC50 in assay [1] and in assay [2] were less than 1 nM and 10 to 100 nM, respectively.

As to `CCC(O)COc1ccc2cc(O)c(N3CC(=O)NS3(=O)=O)c(F)c2c1` (stereo not drawn) [Compound 327, 5-[1-fluoro-3-hydroxy-7-(2-hydroxybutoxy)naphthalen-2-yl]-1λ^6,2,5-thiadiazolidine-1,1,3-trione], the IC50 in assay [1] and in assay [2] was less than 1 nM each time.

On to `O=C1CN(c2c(O)cc3cc(O)ccc3c2F)S(=O)(=O)N1` [Compound 328, 5-(1-fluoro-3,6-dihydroxynaphthalen-2-yl)-1λ^6,2,5-thiadiazolidine-1,1,3-trione], for which the IC50 in assay [1] was less than 1 nM; in assay [2], 1 to 10 nM.

In the case of `Nc1ccc2c(F)c(N3CC(=O)NS3(=O)=O)c(O)cc2c1` [Compound 329, 5-(6-amino-1-fluoro-3-hydroxynaphthalen-2-yl)-1λ^6,2,5-thiadiazolidine-1,1,3-trione], the figures for the IC50 in assay [1] and in assay [2] were 1 to 10 nM and 10 to 100 nM, respectively.

For `O=C1CN(c2c(O)cc3cc(NCCCC(F)F)ccc3c2F)S(=O)(=O)N1` [Compound 330, 5-{6-[(4,4-difluorobutyl)amino]-1-fluoro-3-hydroxynaphthalen-2-y}-1λ^6,2,5-thiadiazolidine-1,1,3-trione], the IC50 in assay [1] and in assay [2] was 10 to 100 nM in each case.

`O=C1CN(c2c(O)cc3cc(NCC4CC4)ccc3c2F)S(=O)(=O)N1` [Compound 331, 5-{6-[(cyclopropylmethyl)amino]-1-fluoro-3-hydroxynaphthalen-2-yl}-1λ^6,2,5-thiadiazolidine-1,1,3-trione]: the IC50 in assay [1] and in assay [2] was 10 to 100 nM in each case.

On to `CC(C)CCNc1ccc2c(F)c(N3CC(=O)NS3(=O)=O)c(O)cc2c1` [Compound 332, 5-{1-fluoro-3-hydroxy-6-[(3-methylbutyl)amino]naphthalen-2-yl}-1λ^6,2,5-thiadiazolidine-1,1,3-trione], for which the IC50 in assay [1] and in assay [2] was 10 to 100 nM throughout.

For the compound `CC(C)(O)CCNc1ccc2c(F)c(N3CC(=O)NS3(=O)=O)c(O)cc2c1` [Compound 333, 5-{1-fluoro-3-hydroxy-6-[(3-hydroxy-3-methylbutyl)amino]naphthalen-2-yl}-1λ^6,2,5-thiadiazolidine-1,1,3-trione], the IC50 in assay [1] and in assay [2] was 10 to 100 nM in each case.

Consider `O=C1CN(c2c(O)cc3ccc(OCCN4CCC(F)(F)C4)cc3c2F)S(=O)(=O)N1` [Compound 383, 5-{7-[2-(3,3-difluoropyrrolidin-1-yl)ethoxy]-1-fluoro-3-hydroxynaphthalen-2-yl}-1λ^6,2,5-thiadiazolidine-1,1,3-trione], for which the IC50 in assay [1] lay within 1 to 10 nM.

With `O=C1CN(c2c(O)cc3ccc(OCCN4Cc5ccccc5C4)cc3c2F)S(=O)(=O)N1` [Compound 384, 5-{7-[2-(1,3-dihydro-2H-isoindol-2-yl)ethoxy]-1-fluoro-3-hydroxynaphthalen-2-yl}-1λ^6,2,5-thiadiazolidine-1,1,3-trione], the IC50 in assay [1] lay within 1 to 10 nM.

As for `O=C1CN(c2c(O)cc3ccc(OCCN4CC(F)(F)C4)cc3c2F)S(=O)(=O)N1` [Compound 385, 5-{7-[2-(3,3-difluoroazetidin-1-yl)ethoxy]-1-fluoro-3-hydroxynaphthalen-2-yl}-1λ^6,2,5-thiadiazolidine-1,1,3-trione], the IC50 in assay [1] was in the range of 1 to 10 nM.

`CC1(CCOc2cc3c(F)c(N4CC(=O)NS4(=O)=O)c(O)cc3cc2O)CC1` [Compound 386, 5-{1-fluoro-3,6-dihydroxy-7-[2-(1-methylcyclopropyl)ethoxy]naphthalen-2-yl}-1λ^6,2,5-thiadiazolidine-1,1,3-trione]: in assay [1], the IC50 was less than 1 nM.

In the case of `C[C@](O)(CO)CCOc1cc2c(F)c(N3CC(=O)NS3(=O)=O)c(O)cc2cc1O` [Compound 387, 5-{7-[(3R)-3,4-dihydroxy-3-methylbutoxy]-1-fluoro-3,6-dihydroxynaphthalen-2-yl}-1λ^6,2,5-thiadiazolidine-1,1,3-trione], the 50% inhibitory concentration (IC50) in assay [1] is less than 1 nM.

For the compound `CCN(C)CCOc1ccc2cc(O)c(N3CC(=O)NS3(=O)=O)c(F)c2c1` [Compound 388, 5-(7-{2-[ethyl(methyl)amino]ethoxy}-1-fluoro-3-hydroxynaphthalen-2-yl)-1λ^6,2,5-thiadiazolidine-1,1,3-trione], the IC50 in assay [1] was 1 to 10 nM.

Turning to `CN(CCC#N)CCOc1ccc2cc(O)c(N3CC(=O)NS3(=O)=O)c(F)c2c1` [Compound 389, 3-[(2-{[8-fluoro-6-hydroxy-7-(1,1,4-trioxo-1λ^6,2,5-thiadiazolidin-2-yl)naphthalen-2-yl]oxy}ethyl)(methyl)amino]propanenitrile], the IC50 in assay [1] lay within 1 to 10 nM.

For the compound `O=C1CN(c2c(O)cc3ccc(OCCNCC(F)(F)F)cc3c2F)S(=O)(=O)N1` [Compound 390, 5-(1-fluoro-3-hydroxy-7-{2-[(2,2,2-trifluoroethyl)amino]ethoxy}naphthalen-2-yl)-1λ^6,2,5-thiadiazolidine-1,1,3-trione], the IC50 in assay [1] lay in the range of 1 to 10 nM.
